Results taken from patent US4885305A, “Nasal compositions” (Yamanouchi Pharmaceutical Co., Ltd., priority 1984, dated 1989).
Where two headings read alike, the source gives them in different places.

Experiment: Bioavailability trial of nicardipine in rhesus monkeys: nasal composition compared with oral route (gastric tube), plasma levels by gas chromatography
Assay type: in vivo
Conditions: rhesus monkey; for AUC(0-t) at 24 h: read-out: AUC 0-24 h (area under the curve); for Tmax: read-out: T max (time to obtain C max)
Description: This activity has been confirmed by standard bioavailability trials wherein nasal pharmaceutical compositions of the invention are compared with other conventional compositions and blood levels of drug are measured. In one trial, a nasal composition of the invention comprising 4 mg nicardipine hydrochloride per ml of distilled water has been administered nasally to rhesus monkeys (weight from 7 to 12 kg). A dose of 0.5 ml of this composition is sprayed each morning into each nostril. Blood samples are taken up 15 minutes, 30 minutes, 1 hour, 2 hours, 3 hours, 4 hours, 6 hours, 8 hours and 24 hours after administration and treated with lithium heparin. The treated blood samples are centrifuged and the concentration of nicardipine in the plasma is determined in conventional manner by converting the nicardipine into a corresponding pyridine derivative and determination by gas chromatographic techniques. The same animals are also treated in another similar trial with orally administered nicardipine at a dose of 20 mg by mean of a gastric tube.

[1] = oral route (gastric tube), 20 mg

- AUC(0-t) at 24 h (nasal route, 4 mg): 192 ± 36.3 ng·h/mL
- Tmax (nasal route, 4 mg): 0.4 ± 0.1 h
- AUC(0-t) at 24 h [1]: 457 ± 86.6 ng·h/mL
- Tmax [1]: 2.1 ± 0.5 h
SMILES: COC(=O)C1=C(C)NC(C)=C(C(=O)OCCN(C)Cc2ccccc2)C1c1cccc([N+](=O)[O-])c1 (stereo not shown) [nicardipine]
